In the NIST ThermoML archive (doi:10.1016/j.jct.2013.10.017) one finds activity coefficient, refractive index and mass density data, which are given here for 29 compounds.

± gives the expanded uncertainty stated by the source.

Data set [1] can be described thus: activity coefficient (dimensionless); of the first substance listed, at infinite dilution; xn = mol fraction of the nth substance listed. The note with it: 100 kPa, Liquid, Chromatography, x1 = 0.
Data set [2] can be described thus: refractive index (Na D-line) (dimensionless). Particulars: 101.33 kPa, Liquid, Standard Abbe refractometry.
The conditions of data set [3]: 101.33 kPa, Liquid, Vibrating tube method.

As for `CCC(C)=O` [butanone] + CCn1cc[n+](C)c1.COCCOCCOS(=O)(=O)[O-], the activity coefficient in data set [1] (308.15 K) is 2.33 ± 0.12; in data set [1] (313.15 K), 2.34 ± 0.13; in data set [1] (323.15 K), 2.37 ± 0.18; in data set [1] (333.15 K), 2.42 ± 0.21.
In the same order, the values of `CC1CCCCC1` [methylcyclohexane] + CCn1cc[n+](C)c1.COCCOCCOS(=O)(=O)[O-] are 71.9 ± 3.2, 70.6 ± 3.3, 65.8 ± 4.1 and 62.3 ± 5.7.
For `CC(C)=O` [acetone] + CCn1cc[n+](C)c1.COCCOCCOS(=O)(=O)[O-] the same measures were 1.42 ± 0.07, 1.46 ± 0.07, 1.47 ± 0.11 and 1.51 ± 0.13.
In the case of `C#CCCCCCC` [1-octyne] + CCn1cc[n+](C)c1.COCCOCCOS(=O)(=O)[O-], the activity coefficient in data set [1] (308.15 K) was found to be 16.4 ± 0.7; in data set [1] (313.15 K), 16.7 ± 0.9; in data set [1] (323.15 K) it was 17.1 ± 1.3; in data set [1] (333.15 K), 17.4 ± 1.7.
In the same order, the values of `c1ccccc1` [benzene] + CCn1cc[n+](C)c1.COCCOCCOS(=O)(=O)[O-] are 2.31 ± 0.12, 2.33 ± 0.15, 2.41 ± 0.18 and 2.48 ± 0.22.
For `Cc1ccccc1` [toluene] + CCn1cc[n+](C)c1.COCCOCCOS(=O)(=O)[O-] the same measures were 4.43 ± 0.21, 4.45 ± 0.27, 4.51 ± 0.33 and 4.62 ± 0.45.
In the case of `C#CCCCCC` [1-heptyne] + CCn1cc[n+](C)c1.COCCOCCOS(=O)(=O)[O-], the activity coefficient in data set [1] (308.15 K) amounted to 9.61 ± 0.48; in data set [1] (313.15 K), 9.76 ± 0.56; in data set [1] (323.15 K), 10.1 ± 0.83; in data set [1] (333.15 K), 10.3 ± 1.
In the same order, the values of `CCCCCC` [hexane] + CCn1cc[n+](C)c1.COCCOCCOS(=O)(=O)[O-] are 103 ± 4.9, 102 ± 4.9, 94 ± 5.2 and 85.7 ± 7.4.
For `CCCCCCCCC` [nonane] + CCn1cc[n+](C)c1.COCCOCCOS(=O)(=O)[O-] the same measures were 292 ± 16, 303 ± 14, 288 ± 20 and 281 ± 13.
Take `C#CCCCCCCC` [1-nonyne] + CCn1cc[n+](C)c1.COCCOCCOS(=O)(=O)[O-]: the activity coefficient stood at 23.9 ± 1.1 in data set [1] (308.15 K), 24.7 ± 1.1 in data set [1] (313.15 K), 25.7 ± 1.9 in data set [1] (323.15 K) and 26.4 ± 2.4 in data set [1] (333.15 K).
For `CCCO` [propan-1-ol] + CCn1cc[n+](C)c1.COCCOCCOS(=O)(=O)[O-] the same measures were 1.01 ± 0.05, 0.989 ± 0.056, 0.942 ± 0.055 and 0.913 ± 0.063.
For `CCO` [ethanol] + CCn1cc[n+](C)c1.COCCOCCOS(=O)(=O)[O-] the same measures were 0.719 ± 0.032, 0.705 ± 0.033, 0.664 ± 0.03 and 0.666 ± 0.029.
In the same order, the values of `C1CCCCCC1` [cycloheptane] + CCn1cc[n+](C)c1.COCCOCCOS(=O)(=O)[O-] are 60.3 ± 2.9, 58.7 ± 3.2, 54.1 ± 3.8 and 50.6 ± 5.
On to `C#CCCC` [1-pentyne] + CCn1cc[n+](C)c1.COCCOCCOS(=O)(=O)[O-], for which the activity coefficient in data set [1] (308.15 K) amounted to 3.62 ± 0.19; in data set [1] (313.15 K), 3.74 ± 0.25; in data set [1] (323.15 K), 3.98 ± 0.4; in data set [1] (333.15 K), 4.13 ± 0.4.
In the same order, the values of `C=CCCCCC` [1-heptene] + CCn1cc[n+](C)c1.COCCOCCOS(=O)(=O)[O-] are 71.3 ± 4.7, 71.7 ± 3.2, 68.6 ± 4.8 and 65.6 ± 6.1.
For `C=CCCCCCCC` [1-nonene] + CCn1cc[n+](C)c1.COCCOCCOS(=O)(=O)[O-] the same measures were 168 ± 7.6, 168 ± 9.1, 160 ± 7.1 and 149 ± 8.9.
For `C=CCCCCCC` [oct-1-ene] + CCn1cc[n+](C)c1.COCCOCCOS(=O)(=O)[O-] the same measures were 114 ± 5.6, 113 ± 6.1, 107 ± 5.6 and 101 ± 8.
Regarding `CCn1cc[n+](C)c1.COCCOCCOS(=O)(=O)[O-]` [1-ethyl-3-methylimidazolium 2-(2-methoxyethoxy) ethylsulfate], the refractive index in data set [2] (308.2 K) came out at 1.47929 ± 0.00051; in data set [2] (313.2 K) it was 1.47565 ± 0.00051; in data set [2] (323.2 K), 1.47281 ± 0.00051; in data set [2] (333.2 K), 1.46995 ± 0.00051. Further, the mass density in data set [3] (308.2 K) was found to be 1230.4 ± 1.3 kg/m3; in data set [3] (313.2 K) it was 1226.21 ± 1.3 kg/m3; in data set [3] (323.2 K), 1219.6 ± 1.3 kg/m3; in data set [3] (333.2 K) it was 1213.66 ± 1.3 kg/m3.
For the compound `C1CCCCCCC1` [cyclooctane] + CCn1cc[n+](C)c1.COCCOCCOS(=O)(=O)[O-], the activity coefficient was 82.6 ± 3.7 in data set [1] (308.15 K), 79.8 ± 3.6 in data set [1] (313.15 K), 73.4 ± 4.3 in data set [1] (323.15 K) and 68.2 ± 6.2 in data set [1] (333.15 K).
In the same order, the values of `C=CCCC` [1-pentene] + CCn1cc[n+](C)c1.COCCOCCOS(=O)(=O)[O-] are 26.1 ± 2.4, 26.5 ± 1.5, 26.3 ± 2 and 25.4 ± 2.
Take `C=CCCCC` [hex-1-ene] + CCn1cc[n+](C)c1.COCCOCCOS(=O)(=O)[O-]: the activity coefficient came to 45.6 ± 2.4 in data set [1] (308.15 K), 44.7 ± 2.2 in data set [1] (313.15 K), 43.4 ± 4.1 in data set [1] (323.15 K) and 40.3 ± 3.2 in data set [1] (333.15 K).
For `C1CCCCC1` [cyclohexane] + CCn1cc[n+](C)c1.COCCOCCOS(=O)(=O)[O-] the same measures were 45.4 ± 2.1, 45 ± 2.9, 41.5 ± 3.2 and 38.8 ± 4.1.
With `C1CCCC1` [cyclopentane] + CCn1cc[n+](C)c1.COCCOCCOS(=O)(=O)[O-], the activity coefficient in data set [1] (308.15 K) was determined as 27.1 ± 1.3; in data set [1] (313.15 K) it was 26 ± 1.5; in data set [1] (323.15 K) it was 24.1 ± 2; in data set [1] (333.15 K), 22.8 ± 1.4.
For `CCCCCCC` [heptane] + CCn1cc[n+](C)c1.COCCOCCOS(=O)(=O)[O-] the same measures were 158 ± 7.1, 158 ± 8, 147 ± 6.8 and 139 ± 6.2.
In the same order, the values of `CCc1ccccc1` [ethylbenzene] + CCn1cc[n+](C)c1.COCCOCCOS(=O)(=O)[O-] are 8.04 ± 0.38, 8.04 ± 0.47, 8.06 ± 0.61 and 8.17 ± 0.74.
In the same order, the values of `CO` [methanol] + CCn1cc[n+](C)c1.COCCOCCOS(=O)(=O)[O-] are 0.39 ± 0.027, 0.392 ± 0.027, 0.374 ± 0.031 and 0.369 ± 0.027.
For `CCCCC` [pentane] + CCn1cc[n+](C)c1.COCCOCCOS(=O)(=O)[O-], the activity coefficient was found to be 65.8 ± 4.5 in data set [1] (308.15 K), 65.6 ± 4 in data set [1] (313.15 K), 60.8 ± 2.9 in data set [1] (323.15 K) and 59 ± 5.1 in data set [1] (333.15 K).
Turning to `CCCCCCCC` [octane] + CCn1cc[n+](C)c1.COCCOCCOS(=O)(=O)[O-], the activity coefficient in data set [1] (308.15 K) worked out at 215 ± 9.9; in data set [1] (313.15 K), 216 ± 9.9; in data set [1] (323.15 K), 212 ± 10; in data set [1] (333.15 K), 202 ± 10.
For `C#CCCCC` [1-hexyne] + CCn1cc[n+](C)c1.COCCOCCOS(=O)(=O)[O-] the same measures were 6.05 ± 0.32, 6.22 ± 0.38, 6.49 ± 0.56 and 6.73 ± 0.65.
